Test results published in US20240124412A1, “IKAROS ZINC FINGER FAMILY DEGRADERS AND USES THEREOF” (Gilead Sciences, Inc., priority 2021, published 2024).

Legend:
IKZF1 = biological target: T1, IKZF1 (Homo sapiens, UniProt Q13422+Q96SW2); experiment: HiBiT protein tagging assay, in vitro IKZF1 degradation (HEK293); assay type: cell-based; details: HEK293, 18-24 hr incubation, normalized to DMSO control; for Dmax: read-out: IKZF1 Dmax (maximum degradation at the highest concentration tested); for DC50: read-out: IKZF1 EC50
T1 construct: expressed in transfected cells
Method in brief: (§1)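 Flp-In T-REx HEK293 pools stably expressing C-terminal HiBiT-tagged IKZF1 or IKZF2 were induced overnight with 1 μg/ml doxycycline. Cells were then treated with serially diluted compound for 18-24 hr at 37 °C and read by Nano-Glo lytic luminescence. Data were normalized to 0.5% DMSO as POC; EC50 and Dmax (maximum degradation at highest concentration tested) reported.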

IKZF2 = biological target: T2, IKZF2 (Homo sapiens, UniProt Q96SW2+Q9UKS7); experiment: HiBiT protein tagging assay, in vitro IKZF2 degradation (HEK293); assay type: cell-based; details: HEK293, 18-24 hr incubation, normalized to DMSO control; for Dmax: HEK293, HiBiT assay, read-out: IKZF2 Dmax (maximum degradation at the highest concentration tested); for DC50: HiBiT assay, read-out: IKZF2 EC50
T2 construct: expressed in transfected cells
Method in brief: as §1

T2 sequence (Q9UKS7 1-500 isoform Q9UKS7-2): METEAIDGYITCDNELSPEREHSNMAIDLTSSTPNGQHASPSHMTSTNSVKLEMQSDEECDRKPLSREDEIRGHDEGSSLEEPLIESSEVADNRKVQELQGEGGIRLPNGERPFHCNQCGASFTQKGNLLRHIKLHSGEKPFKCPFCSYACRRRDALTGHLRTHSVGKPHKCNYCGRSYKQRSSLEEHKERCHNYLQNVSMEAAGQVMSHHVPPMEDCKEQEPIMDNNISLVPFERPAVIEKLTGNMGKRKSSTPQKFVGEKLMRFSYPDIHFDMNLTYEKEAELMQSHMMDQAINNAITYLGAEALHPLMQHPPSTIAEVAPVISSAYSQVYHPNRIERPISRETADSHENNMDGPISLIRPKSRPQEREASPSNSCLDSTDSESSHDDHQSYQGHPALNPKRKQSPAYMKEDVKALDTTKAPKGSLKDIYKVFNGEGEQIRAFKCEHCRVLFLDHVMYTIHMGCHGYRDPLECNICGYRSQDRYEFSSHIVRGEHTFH
T2 sequence (Q96SW2 whole entry): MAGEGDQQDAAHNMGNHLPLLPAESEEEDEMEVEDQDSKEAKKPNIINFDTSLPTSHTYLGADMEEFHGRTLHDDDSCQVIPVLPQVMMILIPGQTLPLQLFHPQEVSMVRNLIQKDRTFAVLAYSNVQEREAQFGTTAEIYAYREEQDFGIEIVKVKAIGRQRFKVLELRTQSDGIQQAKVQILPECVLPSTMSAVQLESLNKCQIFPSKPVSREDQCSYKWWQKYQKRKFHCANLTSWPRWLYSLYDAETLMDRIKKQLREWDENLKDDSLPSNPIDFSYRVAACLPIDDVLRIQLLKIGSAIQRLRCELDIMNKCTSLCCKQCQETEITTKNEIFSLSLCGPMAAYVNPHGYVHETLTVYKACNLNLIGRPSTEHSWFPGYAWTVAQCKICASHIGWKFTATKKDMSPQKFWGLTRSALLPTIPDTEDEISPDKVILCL
T2 sequence (Q16531 whole entry partner): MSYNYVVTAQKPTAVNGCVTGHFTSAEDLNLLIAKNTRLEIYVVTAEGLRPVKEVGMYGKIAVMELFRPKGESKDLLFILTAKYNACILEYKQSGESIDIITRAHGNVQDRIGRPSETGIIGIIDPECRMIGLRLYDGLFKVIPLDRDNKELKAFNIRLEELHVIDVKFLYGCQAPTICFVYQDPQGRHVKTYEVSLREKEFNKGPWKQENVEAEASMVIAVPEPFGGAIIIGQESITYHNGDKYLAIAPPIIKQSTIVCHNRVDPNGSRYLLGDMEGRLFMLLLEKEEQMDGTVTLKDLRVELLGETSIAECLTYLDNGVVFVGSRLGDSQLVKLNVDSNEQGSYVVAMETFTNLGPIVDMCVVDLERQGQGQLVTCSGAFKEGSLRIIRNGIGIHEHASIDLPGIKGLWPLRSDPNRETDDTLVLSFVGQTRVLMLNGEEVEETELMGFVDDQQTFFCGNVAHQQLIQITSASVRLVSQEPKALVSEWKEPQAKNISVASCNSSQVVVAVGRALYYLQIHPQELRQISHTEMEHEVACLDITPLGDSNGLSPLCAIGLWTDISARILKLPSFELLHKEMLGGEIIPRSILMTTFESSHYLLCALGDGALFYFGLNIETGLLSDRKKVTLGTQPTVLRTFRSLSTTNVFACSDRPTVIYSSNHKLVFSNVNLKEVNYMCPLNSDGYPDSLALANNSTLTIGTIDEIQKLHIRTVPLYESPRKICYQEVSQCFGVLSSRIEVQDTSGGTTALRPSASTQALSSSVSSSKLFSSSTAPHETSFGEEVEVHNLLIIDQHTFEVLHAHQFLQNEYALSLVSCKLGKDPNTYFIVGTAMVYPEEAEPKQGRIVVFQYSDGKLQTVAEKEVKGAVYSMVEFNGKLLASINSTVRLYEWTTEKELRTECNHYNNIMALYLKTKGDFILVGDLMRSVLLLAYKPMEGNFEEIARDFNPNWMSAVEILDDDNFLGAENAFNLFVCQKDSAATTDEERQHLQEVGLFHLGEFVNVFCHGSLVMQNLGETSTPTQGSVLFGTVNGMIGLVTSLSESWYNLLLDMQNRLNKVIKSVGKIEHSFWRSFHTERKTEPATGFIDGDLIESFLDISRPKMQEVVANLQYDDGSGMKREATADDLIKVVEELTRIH
T1 sequence (Q13422 whole entry): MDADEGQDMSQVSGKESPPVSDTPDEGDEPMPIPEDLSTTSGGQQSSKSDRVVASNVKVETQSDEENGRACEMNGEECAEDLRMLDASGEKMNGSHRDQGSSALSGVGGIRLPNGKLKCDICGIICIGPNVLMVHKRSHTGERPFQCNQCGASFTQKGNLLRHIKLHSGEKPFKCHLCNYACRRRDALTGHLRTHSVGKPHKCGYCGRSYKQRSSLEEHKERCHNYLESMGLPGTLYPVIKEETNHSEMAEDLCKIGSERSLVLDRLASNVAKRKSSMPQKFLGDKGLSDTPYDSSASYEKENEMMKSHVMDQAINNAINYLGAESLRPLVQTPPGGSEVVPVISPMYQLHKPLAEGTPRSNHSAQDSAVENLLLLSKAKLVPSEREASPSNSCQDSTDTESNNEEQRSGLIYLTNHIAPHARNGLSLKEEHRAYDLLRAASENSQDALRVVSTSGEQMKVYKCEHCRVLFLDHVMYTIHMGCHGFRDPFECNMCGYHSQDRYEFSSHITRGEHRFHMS
T1 sequence (Q96SW2 whole entry): as the sequence (Q96SW2 whole entry) above
T1 sequence (Q16531 whole entry partner): as the sequence (Q16531 whole entry partner) above

Compound | Dmax (IKZF1) [%] | DC50 (IKZF1) [nM] | Dmax (IKZF2) [%] | DC50 (IKZF2) [nM]
O=C1CCC(N2Cc3cc(CNCc4cc5ccccc5[nH]4)ccc3C2=O)C(=O)N1 (stereo not shown) [Example 64] | 80 | 61 | 45 | 276
O=C1CCC(N2Cc3cc(CNC4CCC5(CCCCC5)CC4)ccc3C2=O)C(=O)N1 (stereo not shown) [Example 83] | 42 | 84 | 69 | 106
CO[C@@H]1CCCC[C@H]1NCc1ccc2c(c1)CN(C1CCC(=O)NC1=O)C2=O (stereo partly shown) [Example 127] | 57 | 213 | 85 | 170
C[C@@H]1[C@H]2C[C@@H](C[C@H]1NCc1ccc3c(c1)CN(C1CCC(=O)NC1=O)C3=O)C2(C)C (stereo partly shown) [Example 139] | – | > 1000 | 26 | 109
O=C1CCC(N2Cc3cc(CN[C@H]4CC[C@@H](c5ccccc5)CC4)ccc3C2=O)C(=O)N1 (stereo partly drawn) [Example 31, 3-(1-oxo-5-((((1,4-cis)-4-phenylcyclohexyl)amino)methyl)isoindolin-2-yl)piperidine-2,6-dione] | 97 | 3 | 83 | 40
O=C1CCC(N2Cc3cc(CN[C@@H]4CCC[C@H]([C@@H](O)c5ccccc5)C4)ccc3C2=O)C(=O)N1 (stereo partly shown) [Example 135] | 92 | 95 | 94 | 231
O=C1CCC(N2Cc3cc(CN[C@H]4CC[C@@H](C(F)(F)F)CC4)ccc3C2=O)C(=O)N1 (stereo partly shown) [Example 85] | 44 | 117 | 81 | 114
O=C1CCC(N2Cc3cc(CN[C@H]4CCN(Cc5ccccc5)C4)ccc3C2=O)C(=O)N1 (stereo partly drawn) [Example 19, 3-(5-((((S)-1-benzylpyrrolidin-3-yl)amino)methyl)-1-oxoisoindolin-2-yl)piperidine-2,6-dione] | 46 | 122 | 52 | 442
O=C1CCC(N2Cc3cc(CN[C@H]4CC5CCC4CC5)ccc3C2=O)C(=O)N1 (stereo partly drawn) [Example 95, 3-(5-((((S)-bicyclo[2.2.2]octan-2-yl)amino)methyl)-1-oxoisoindolin-2-yl)piperidine-2,6-dione] | – | > 10000 | 49 | 361
O=C1CCC(N2Cc3cc(CNC4CCN(c5cccnc5)CC4)ccc3C2=O)C(=O)N1 (stereo not shown) [Example 36, 3-(1-oxo-5-(((1-(pyridin-3-yl)piperidin-4-yl)amino)methyl)isoindolin-2-yl)piperidine-2,6-dione] | 84 | 96 | 90 | 588
O=C1CCC(N2Cc3cc(CNC4CCC(Oc5ccccc5)CC4)ccc3C2=O)C(=O)N1 (stereo not shown) [Example 104] | 82 | 23 | 72 | 42
O=C1CCC(N2Cc3cc(CNC4CCC(F)(F)CC4)ccc3C2=O)C(=O)N1 (stereo not shown) [Example 7, 3-(5-(((4,4-difluorocyclohexyl)amino)methyl)-1-oxoisoindolin-2-yl)piperidine-2,6-dione] | 70 | 53 | 80 | 104
CC(C)NCc1ccc2c(c1)CN(C1CCC(=O)NC1=O)C2=O (stereo not shown) [Example 9, 3-(5-((isopropylamino)methyl)-1-oxoisoindolin-2-yl)piperidine-2,6-dione] | 51 | 351 | 48 | 738
O=C1CCC(N2Cc3cc(CNC4CCc5cccnc5C4)ccc3C2=O)C(=O)N1 (stereo not shown) [Example 70, 3-(1-oxo-5-(((5,6,7,8-tetrahydroquinolin-7-yl)amino)methyl)isoindolin-2-yl)piperidine-2,6-dione] | 42 | 89 | 67 | 303
C[C@@H]1[C@H](NCc2ccc3c(c2)CN(C2CCC(=O)NC2=O)C3=O)CCCN1Cc1ccccc1 (stereo partly drawn) [Example 106, 3-(5-((((2R,3R)-1-benzyl-2-methylpiperidin-3-yl)amino)methyl)-1-oxoisoindolin-2-yl)piperidine-2,6-dione] | 86 | 93 | 43 | 381
